A value given as a limit tells only on which side of the number the result lay.

The target in data set [1] is T1, BRD4 (BD1+BD2) (Homo sapiens, UniProt O60885).
T1 construct: 1.8 μg/ml recombinant BRD4 (BD1+BD2 domains) protein
Conditions: read-out: BRD4 Binding Potency.

Data set [2] has as its system IGF1R. The data set can be described thus: HSP90 Client Protein Degradation Flow Cytometry Assay, IGF1R in HEK-293 cells. In kind it is cell-based, human. As to the method: (§1) MV4-11 cells were plated in a 24-well tissue culture plate at a density of 350,000 cells/450 μL/well and incubated in 37° C./5% CO2 for 1 hr. Cells were then treated with compounds at various concentrations and incubated in 37° C./5% CO2 for 24 hr. Cells were harvested, washed once, counted and 200 μL of 1% paraformaldehyde/PBS was added and incubated for 15 min at room temperature. 200 μL of 1×PBS/0.4% Triton X-100 was added and incubated for 15 min at 4° C. Cells were washed three times and resuspended in 50 μL of 1×PBS/0.2% Triton X-100. 2 μL/10^6 cells of anti-BRD4 antibody (ABCAM, #128874) was added and mixed by pipetting up and down. Cells were incubated for 30 min at room temperature in the dark, washed three times and resuspended in 50 μL of 1×PBS/0.2% Triton X-100. Goat anti-rabbit IgG H&L antibody (1:2000 dilution) was added and mixed by pipetting up and down and incubated for 30 min at room temperature in the dark. Finally, cells were washed three times and resuspended in 200 μL of PBS for flow cytometric analysis.
(§2) Similar flow cytometry experiments for ERBB2 in BT-474 human breast carcinoma cells (ATCC, #HTB-20) and IGF1R, EGFR and RAF1 in HEK-293 human embryonic kidney (ATCC, #CRL-1573) were performed using anti-ERBB2 (R&D, #FAB1129P), anti-IGF1R (Cell Signaling Technology, #9750), anti-EGFR (Cell Signaling Technology, #139690) and anti-RAF1 (ABCAM, #ab181115) antibodies.

For data set [3], the target named is T2, BRD4 (Homo sapiens, UniProt O60885).
T2 construct: endogenous in cells; host or cells: MV4-11
The data set can be described thus: BRD4 Western Blotting in MV4-11 cells. It counts as cell-based. As to the method:
Cells were then collected by centrifugation, washed one time with cold PBS, supernatants aspirated and cell pellets lysed with 4° C. RIPA lysis buffer containing a protease/phosphatase inhibitor cocktail. The total protein concentrations of cell lysates were determined by BCA Protein Assay kit. Samples were normalized for equivalent protein concentrations, 5× loading buffer added and heated to 100° C. for 10 min and cooled to room temperature. 20 μl of each sample/well was loaded on a SDS-PAGE gel and electrophoresed for 20 min at 80 V, then 120 V for 1.5 hr. Gels were then electroblotted to nitrocellulose membranes using a wet-transfer method at 250 mA for 2.5 hr. Membranes were incubated with blocking buffer for 1 hr and washed 3 times with TBST for 5 min. Then membranes were incubated with anti-BRD4 (Cell Signaling Technology, #13440) and anti-beta-Actin (Cell Signaling Technology, #3700) antibodies diluted in blocking buffer per the manufacturer's recommendation at 4° C. overnight. After washing 3 times, blots were incubated with the appropriate labeled secondary antibody for 1 hr at room temperature and washed again. Images were read on a LI-COR and the optical density values of bands determined by ImageJ software. Data was analyzed using GraphPad Prism 7.0.

For data set [4], the system named is MV4-11 cells. The data set can be described thus: MV4-11 Cell Cytotoxicity Assay. Conditions: 72 hr, CCK-8. In kind it is cell-based, human. The text has this:
% Inhibition=100−(D−B)/(S−B)*100%.
S: The absorbance of the maximum (cells with DMSO)
B: The absorbance of the minimum (medium with DMSO)

In data set [5] the test system is RAF1. The data set can be described thus: HSP90 Client Protein Degradation Flow Cytometry Assay, RAF1 in HEK-293 cells. It counts as cell-based, human. As to the method: as §1, §2
Data set [6] has as its system ERBB2. The data set can be described thus: HSP90 Client Protein Degradation Flow Cytometry Assay, ERBB2 in BT-474 cells. It counts as cell-based, human. The procedure: as §1, §2
Data set [7] deals with MV4-11 xenograft. Put plainly: MV4-11 AML tumor xenograft study in mice. To be noted: for animals tumor free at the end of the study: 3 weeks; for tumor growth inhibition: after 3 weeks of dosing. The procedure: (§3) Tumor Xenograft Studies in Mice
MV4-11 acute myeloid leukemia and SU-DHL-4 diffuse large B-cell lymphoma (ATCC, #CRL-2957) cells were cultured in medium supplemented with 10% fetal bovine serum at 37° C./5% CO2. 5×10^6 MV-4-11 or 1×10^7 SU-DHL-4 cells were collected and re-suspended in 0.1 mL of serum-free media with Matrigel (1:1 v/v) per mouse for subcutaneous inoculation in isoflurane anesthetized male BALB/c nude or C.B-17 scid mice, respectively (treated in accordance with AAALAC animal welfare guidelines). When the average tumor volumes reached 100-200 mm^3, tumor volume outliers were removed and the remaining animals randomly divided into groups of 6-8 with similar average tumor volumes in each group. […] […] The appearance and behavior of each mouse was observed and recorded daily. Body weights and tumor volumes were measured and recorded every 2-4 days and the results were expressed as group means±SEM. Pairwise statistical comparisons between groups were performed by one-way ANOVA, and p<0.05 was considered statistically significant.

The subject of data set [8] is SU-DHL-4 xenograft. The data set can be described thus: SU-DHL-4 DLBCL tumor xenograft study in mice. As to the method:
as §3
5×10^6 MV-4-11 or 1×10^7 SU-DHL-4 cells were collected and re-suspended in 0.1 mL of serum-free media with Matrigel (1:1 v/v) per mouse for subcutaneous inoculation in isoflurane anesthetized male BALB/c nude or C.B-17 scid mice, respectively (treated in accordance with AAALAC animal welfare guidelines). When the average tumor volumes reached 100-200 mm^3, tumor volume outliers were removed and the remaining animals randomly divided into groups of 6-8 with similar average tumor volumes in each group. […] Animals were intravenously dosed at 25 mg/kg, 50 mg/kg or 100 mg/kg 1×/week for 3 or 4 weeks. The appearance and behavior of each mouse was observed and recorded daily. Body weights and tumor volumes were measured and recorded every 2-4 days and the results were expressed as group means±SEM. Pairwise statistical comparisons between groups were performed by one-way ANOVA, and p<0.05 was considered statistically significant.

[9] abbreviates: 100 mg/kg intravenously 1×/week.
Where [10] appears, read: 100 mg/kg intravenously 1×/week, after 4 weeks of dosing.

In the case of `Cc1sc2c(c1C)C(c1ccc(Cl)cc1)=N[C@@H](CC(=O)N1CCC(CN3CCN(Cc4ccc(-n5c(O)nnc5-c5cc(C(C)C)c(O)cc5O)cc4)CC3)CC1)c1nnc(C)n1-2.Cl` [Compound 74, (S)-2-(4-(4-chlorophenyl)-2,3,9-trimethyl-6H-thieno[3,2-f][1,2,4]triazolo[4,3-a][1,4]diazepin-6-yl)-1-(4-((4-(4-(3-(2,4-dihydroxy-5-isopropylphenyl)-5-hydroxy-4H-1,2,4-triazol-4-yl)benzyl)piperazin-1-yl)methyl)piperidin-1-yl)ethan-1-one hydrochloride], the IC50 in data set [1] was 100 to 1000 nM; in data set [2], 1060 nM; in data set [4], less than 100 nM; in data set [5], 762 nM; in data set [6], 340 nM. For the same compound, in data set [3] (MV4-11 cells treated with both compound 074 and bortezomib), the “BRD4 degradation by western blotting with proteasome inhibitor bortezomib” value is reported as “BRD4 degradation was blocked”. Besides, in data set [3] (MV4-11 cells, 24 hr, 100 and 300 nM), the “BRD4 degradation by western blotting” value is “BRD4 degradation was observed”. Besides, in data set [3] (MV4-11 cells, read-out: IC50 value for BRD4 degradation determined by western blotting), the DC50 came out at 59 nM. In addition, the “animals tumor free at the end of the study” value in data set [7] (50 mg/kg intravenously 1×/week) is on record as 1 out of 6; in data set [7] (setting [9]), 4 out of 6. In addition, the tumor growth inhibition result in data set [7] (50 mg/kg intravenously 1×/week), in data set [7] (setting [9]) and in data set [8] (setting [10]) was “significant tumor growth inhibition” throughout. The “animal deaths and body weights” value in data set [7] (any group) and in data set [8] (any dose level) was “No animal deaths or significant effects on body weights were observed” in each case. In data set [8] (setting [10]), the “tumor vs control (T/C) value” was 41%.

Source of the values: patent publication US20220168427A1 (Ranok Therapeutics (Hangzhou) Co. Ltd., priority 2019, published 2022).
